According to patent publication EP0155934B1, “Pharmaceutical compositions for treating androgen-related disorders in humans” (Duke University, priority 1983, dated 1985):

Columns and labels:
enzyme 5a-reductase = assay: 5a-reductase inhibition, assay of R. J. Moore and J. D. Wilson; assay type: biochemical; settings: compared with progesterone
Excerpt: (§1) The compounds of the present invention represent an important advance over progestrone and derivatives thereof since they are irreversible inhibitors of the enzyme 5a-reductase. Employing the assay of R. J. Moore and J. D. Wilson [Methods in Enzymology, Vol. XXXVI, Academic Press, N.Y., Ed. W. O'Malley and G. Hardman, p.

5α-Reductase = assay: Preincubation of enzyme with inhibitor and NADPH, tenfold dilution, then assay for 5a-reductase activity; assay type: biochemical; settings: for Picomol Testosterone reduced/mg protein in 45 min + SEM: testosterone 5x10^-8, NADPH 5x10^-4; for manner of combination with / inactivation of the enzyme: in the presence of the co-factor NADPH
Excerpt: as §1

5a-reductase = assay: Time course of inactivation of 5a-reductase after incubation with NADPH and inhibitor (saturation kinetics); assay type: biochemical; settings: Fig. 1
Procedure: The time course of inactivation of 5a-reductase following incubation of the enzyme with NADPH and 17a-acetoxy-6-methyleneprogesterone is shown in Fig. 1.
When these rate constants are plotted (as the t 1/2's) against the reciprocal of the inhibitor concentrations, a straight line i obtained with a positive intercept on the y-axis, indicating a saturation phenomenon (Fig. 2). […] The rate constant for this step (kcat) is 4.8 x 10-^3 s-'.

[1] = tested on: cell-culture preparations of human prostate; settings: thereby inhibiting growth of the tissue; cited from earlier work
[2] = topical administration of a 0.5% solution in aqueous ethanol; cited from earlier work

| Compound | potency as inhibitors of the enzyme (enzyme 5a-reductase) | Picomol Testosterone reduced/mg protein in 45 min + SEM (5α-Reductase; A: preincubation 15 min with inhibitor 5x10^-7 M and NADPH 6x10^-5, assay: inhibitor 5x10^-8 M, n = 6) | Picomol Testosterone reduced/mg protein in 45 min + SEM (5α-Reductase; B: preincubation 15 min without inhibitor, NADPH 6x10^-5, assay: inhibitor 5x10^-8 M, n = 6) | Picomol Testosterone reduced/mg protein in 45 min + SEM (5α-Reductase; C: preincubation 15 min without inhibitor and without NADPH, assay: inhibitor 5x10^-8 M, n = 6) | Picomol Testosterone reduced/mg protein in 45 min + SEM (5α-Reductase; D: preincubation 15 min with inhibitor 5x10^-7 M, no NADPH, assay: inhibitor 5x1-^-8 M, n = 6) | Picomol Testosterone reduced/mg protein in 45 min + SEM (5α-Reductase; F: no preincubation, assay: inhibitor 5x10^-8 M, n = 4) | manner of combination with / inactivation of the enzyme (5α-Reductase) | enzyme activity lost (5α-Reductase; preincubation with inhibitor and NADPH, diluting tenfold, assaying for 5a-reductase activity) [%] | time course of inactivation of the enzyme (5a-reductase) | inhibition of the enzyme [1] | males with acne with an important decrease in sebum secretion [2] | enzyme inactivation on preincubation (5α-Reductase; similar preincubation of the enzyme (with NADPH)) |
| --- | --- | --- | --- | --- | --- | --- | --- | --- | --- | --- | --- | --- |
| C=C1C[C@H]2[C@@H]3CC[C@H](C(C)=O)[C@@]3(C)CC[C@@H]2[C@@]2(C)CCC(=O)C=C12 [6-methyleneprogesterone] | equipotent with progesterone |  |  |  |  |  |  |  |  |  |  |  |
| C=C1C[C@@H]2[C@H](CC[C@@]3(C)[C@H]2CC[C@]3(OC(C)=O)C(C)=O)[C@@]2(C)CCC(=O)C=C12 [17a-acetoxy-6-methyleneprogesterone, 17-Acetoxy-6-methylene-4-pregnen-3,20-dione] | equipotent with progesterone | 0.71±0.018n = 6 Picomol Testosterone reduced/mg protein in 45 min | 3.0 ±0.26n = 6 Picomol Testosterone reduced/mg protein in 45 min | 2.83±0.09n = 6 Picomol Testosterone reduced/mg protein in 45 min | 2.63±0.18n = 6 Picomol Testosterone reduced/mg protein in 45 min | 3.14±0.20n = 4 Picomol Testosterone reduced/mg protein in 45 min | irreversible | 75 | pseudo first-order kinetics |  |  |  |
| CC(=O)[C@H]1CC[C@H]2[C@@H]3CCC4=CC(=O)CC[C@]4(C)[C@H]3CC[C@]12C [Progesterone, reference compound] |  |  |  |  |  |  | competitive and reversible |  |  | strongly inhibits | 45/53 | does not result in enzyme inactivation |
